From patent US20240383875A1, “Benzimidazole Pyridine Derivatives” (Hoffmann-La Roche Inc., priority 2022, published 2024)
pIC50: −log10 of the molar value.

Legend:
Format in all cases: biochemical
SIK1 = SIK1 (Homo sapiens, UniProt P57059); test: Enzymatic activity assay SIK1, RapidFire mass spectrometry (phosphorylation of CHK-peptide); conditions: RapidFire MS, inhibition of SIK1; read-out: SIK1 RF IC50
Description: (§1) Assay description SIK1-3, RapidFire:
(§2) In the presence of SIK2 (resp. SIK1 or SIK3) and ATP the CHK-peptide ([…] with C-terminal arginine amide modification) were phosphorylated at one of the four feasible serine's. Only one phosphorylation is observed under the assay conditions. 60 nl of each compound dilution series (12 point; dilution factor 3, generally 30 μM to 170 pM) in DMSO were transferred by acoustic dispensing to the assay plate and 30 min pre-incubated (ambient temperature) after the addition of 5 μl SIK1 (5 nM) resp. 5 μl SIK2 (0.5 nM) or 7 μl SIK3 (1.5 nM) in assay-buffer (12.5 mM HEPES (pH 7.0), 10 mM magnesium acetate, 0.005% BSA). 10 μM CHK-peptide solution and 5 μl 100 μM ATP for SIK1 & SIK2 resp. 3 μl for SIK3 in assay-buffer were added and incubated ambient for 45 min. 40 μl 0.125% formic acid in water were added to quench the reaction. RapidFire (RF) Mass Spectrometry was utilized for data generation as described below. The multiple charged species (3-5 charges) for the phosphorylated and non-phosphorylated form measured by MRM (Multiple Reaction Monitoring; API5000 or 6500+) or EIC (Extracted Ion Current; QToF) were summed up and the ratio calculated (sum phosphorylated species/sum all species) for data evaluation. Normalization was performed by Genedata software based on the non-inhibition control DMSO and the commercially available SIK inhibitor @ 1 μM YKL-05-099 (CAS number 1936529-65-5). The results of the assay are expressed in half-maximal inhibitory concentrations (IC50s) and are summarized below in Table 1.
(§3) Samples were aspirated by vacuum for max. 600 ms and loaded to C4-cartridge (Agilent; #G9203A) for 3000 ms@1.5 ml/min with 0.1% formic acid in water. Afterwards samples were transferred to the APT5000 (APT6500+) or QToF mass spectrometer for 4000 ms@1.25 ml/min with 90% acetonitrile; 10% water; 0.007% TFA; 0.093 formic acid. The cartridge was reconditioned for additional 500 ms with 0.1% formic acid in water
(§4) All MS analyses using the following MS-setup in MRM mode: Electrospray positive; Ion Spray Voltage: 4000V; Temperature: 550° C.; Collision Gas: 5; Curtain Gas: 15; Gas1: 40; Gas 2: 42; EP: 10
(§5) MS-Setup Agilent QToF 6545
(§6) All MS analyses using the following MS-setup in Mode MS: Dual AJS Electrospray positive; VCap: 3000V; Drying & Sheath gas: 340° C.@81/min; Nebulizer: 60 psig; Nozzle Voltage: 2000V; Fragmentor: 130V; Skimmer: 35V; Oct1 RF Vpp: 700V; Ref masses on@5spectra/s

SIK2 = SIK2 (Homo sapiens, UniProt Q9H0K1); test: Enzymatic activity assay SIK2, RapidFire mass spectrometry (phosphorylation of CHK-peptide); conditions: RapidFire MS, inhibition of SIK2; read-out: SIK2 RF IC50
Description: as §1
as §2, with “Only one phosphorylation is observed under the assay conditions. 60 nl of each compound dilution series (12 point; dilution factor 3, generally 30 μM to 170 pM) in DMSO were transferred by acoustic dispensing to the assay plate and 30 min pre-incubated (ambient temperature) after the addition of 5 μl SIK1 (5 nM) resp.” left out, “1936529-65-5).” for “1936529-65-5). The results of the assay are expressed in half-maximal inhibitory concentrations (IC50s) and are summarized below in Table 1.”
as §3, §4, §5, §6

SIK3 = SIK3 (Homo sapiens, UniProt Q9Y2K2); test: Enzymatic activity assay SIK3, RapidFire mass spectrometry (phosphorylation of CHK-peptide); conditions: RapidFire MS, inhibition of SIK3; read-out: SIK3 RF IC50
Description: as §1, §2, §3, §4, §5, §6

Chain of SIK3 (Q9Y2K2 whole entry): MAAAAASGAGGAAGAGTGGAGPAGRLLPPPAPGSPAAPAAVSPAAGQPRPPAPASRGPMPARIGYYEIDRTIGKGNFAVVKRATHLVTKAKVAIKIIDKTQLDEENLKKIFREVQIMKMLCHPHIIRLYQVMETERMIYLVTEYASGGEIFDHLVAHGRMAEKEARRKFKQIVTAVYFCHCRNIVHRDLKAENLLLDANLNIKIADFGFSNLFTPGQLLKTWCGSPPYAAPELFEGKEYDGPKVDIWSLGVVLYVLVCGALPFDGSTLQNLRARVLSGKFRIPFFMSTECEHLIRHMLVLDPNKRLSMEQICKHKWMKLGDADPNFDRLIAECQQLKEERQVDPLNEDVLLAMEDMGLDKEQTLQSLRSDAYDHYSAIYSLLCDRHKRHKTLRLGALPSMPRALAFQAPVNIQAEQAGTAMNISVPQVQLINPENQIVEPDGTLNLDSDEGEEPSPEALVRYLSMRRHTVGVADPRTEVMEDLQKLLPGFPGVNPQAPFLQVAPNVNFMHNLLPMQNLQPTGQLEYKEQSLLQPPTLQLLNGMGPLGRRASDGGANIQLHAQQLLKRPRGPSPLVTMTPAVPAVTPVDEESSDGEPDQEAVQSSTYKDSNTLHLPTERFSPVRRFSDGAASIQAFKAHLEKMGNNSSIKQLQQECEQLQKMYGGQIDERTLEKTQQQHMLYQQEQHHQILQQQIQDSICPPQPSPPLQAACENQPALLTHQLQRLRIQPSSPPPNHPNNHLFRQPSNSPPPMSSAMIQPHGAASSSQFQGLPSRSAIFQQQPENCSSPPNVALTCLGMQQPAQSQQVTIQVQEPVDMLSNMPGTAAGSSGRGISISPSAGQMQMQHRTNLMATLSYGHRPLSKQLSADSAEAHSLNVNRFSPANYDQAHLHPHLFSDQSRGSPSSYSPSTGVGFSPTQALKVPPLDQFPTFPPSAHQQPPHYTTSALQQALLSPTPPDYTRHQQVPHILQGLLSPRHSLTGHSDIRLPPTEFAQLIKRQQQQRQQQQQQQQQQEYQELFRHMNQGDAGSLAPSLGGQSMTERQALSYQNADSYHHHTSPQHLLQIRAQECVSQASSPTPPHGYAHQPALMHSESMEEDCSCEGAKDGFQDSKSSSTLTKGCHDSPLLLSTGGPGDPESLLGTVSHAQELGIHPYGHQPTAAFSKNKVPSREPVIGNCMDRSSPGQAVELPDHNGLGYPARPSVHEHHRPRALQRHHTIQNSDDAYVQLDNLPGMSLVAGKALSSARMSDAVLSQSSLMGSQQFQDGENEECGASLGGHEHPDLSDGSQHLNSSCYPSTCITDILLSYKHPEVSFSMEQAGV
Chain of SIK1 (P57059 whole entry): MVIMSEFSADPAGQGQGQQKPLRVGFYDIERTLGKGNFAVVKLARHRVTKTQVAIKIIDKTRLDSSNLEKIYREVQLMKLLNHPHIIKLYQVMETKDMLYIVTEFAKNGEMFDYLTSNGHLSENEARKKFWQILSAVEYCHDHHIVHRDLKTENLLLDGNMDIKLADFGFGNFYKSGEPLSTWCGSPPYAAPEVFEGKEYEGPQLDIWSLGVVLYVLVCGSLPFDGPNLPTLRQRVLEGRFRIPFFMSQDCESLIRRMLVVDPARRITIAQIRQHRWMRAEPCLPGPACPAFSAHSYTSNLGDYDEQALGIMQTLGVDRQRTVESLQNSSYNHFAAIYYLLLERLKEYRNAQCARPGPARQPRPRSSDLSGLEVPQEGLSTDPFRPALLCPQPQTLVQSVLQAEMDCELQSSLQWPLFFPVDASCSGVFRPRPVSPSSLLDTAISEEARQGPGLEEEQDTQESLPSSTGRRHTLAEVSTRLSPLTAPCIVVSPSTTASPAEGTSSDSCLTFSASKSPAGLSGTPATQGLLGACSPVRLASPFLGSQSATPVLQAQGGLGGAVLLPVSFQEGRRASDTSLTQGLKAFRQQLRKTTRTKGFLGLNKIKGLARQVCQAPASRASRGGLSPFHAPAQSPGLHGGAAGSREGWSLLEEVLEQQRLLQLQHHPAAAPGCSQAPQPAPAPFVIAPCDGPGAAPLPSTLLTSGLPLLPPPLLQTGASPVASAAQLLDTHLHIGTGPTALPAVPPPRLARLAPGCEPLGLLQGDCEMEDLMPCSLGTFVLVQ
Chain of SIK2 (Q9H0K1 whole entry): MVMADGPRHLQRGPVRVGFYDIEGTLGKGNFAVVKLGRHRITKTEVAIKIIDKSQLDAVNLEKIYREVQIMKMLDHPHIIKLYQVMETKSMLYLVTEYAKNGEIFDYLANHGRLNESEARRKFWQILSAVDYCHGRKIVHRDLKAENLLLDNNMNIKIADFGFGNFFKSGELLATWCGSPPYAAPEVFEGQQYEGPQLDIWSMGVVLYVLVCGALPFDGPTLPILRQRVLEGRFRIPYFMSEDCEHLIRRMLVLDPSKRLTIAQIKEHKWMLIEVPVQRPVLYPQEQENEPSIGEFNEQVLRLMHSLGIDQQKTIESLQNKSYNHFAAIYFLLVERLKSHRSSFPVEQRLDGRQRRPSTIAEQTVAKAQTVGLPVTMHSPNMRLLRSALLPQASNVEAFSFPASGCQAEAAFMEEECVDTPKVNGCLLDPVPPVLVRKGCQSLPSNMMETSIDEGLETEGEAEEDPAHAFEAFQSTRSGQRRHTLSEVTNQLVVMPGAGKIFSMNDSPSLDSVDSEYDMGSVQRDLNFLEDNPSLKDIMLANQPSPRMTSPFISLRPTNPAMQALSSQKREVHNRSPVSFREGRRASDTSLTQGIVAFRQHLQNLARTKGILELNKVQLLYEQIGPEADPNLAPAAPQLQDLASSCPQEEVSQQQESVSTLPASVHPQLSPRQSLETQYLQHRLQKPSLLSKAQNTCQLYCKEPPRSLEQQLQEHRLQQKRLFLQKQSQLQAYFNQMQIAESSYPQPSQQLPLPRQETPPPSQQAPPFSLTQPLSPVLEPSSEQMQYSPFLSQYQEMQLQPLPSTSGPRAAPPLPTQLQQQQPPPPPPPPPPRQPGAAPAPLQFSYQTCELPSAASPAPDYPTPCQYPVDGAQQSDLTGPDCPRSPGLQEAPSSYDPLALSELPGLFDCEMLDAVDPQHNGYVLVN

| Compound | pIC50 (SIK1) | pIC50 (SIK2) | pIC50 (SIK3) |
| --- | --- | --- | --- |
| COc1cc2ncn(-c3ccc([C@H](C)O)c(-c4ccccc4C(N)=O)n3)c2cc1OC [Example 35, (S)-2-(6-(5,6-Dimethoxy-1H-benzo[d]imidazol-1-yl)-3-(l-hydroxyethyl)pyridin-2-yl)benzamide] | 4.87 | 5.22 | 5.13 |
| COc1cc2ncn(-c3ccc([C@@H](C)O)c(-c4ccccc4C(N)=O)n3)c2cc1OC [Example 36, (R)-2-(6-(5,6-Dimethoxy-1H-benzo[d]imidazol-1-yl)-3-(1-hydroxyethyl)pyridin-2-yl)benzamide] | 4.62 | 5.01 | 4.87 |
| COc1cc2ncn(-c3ccc([C@@H](C)O)c(-c4ccc(C#N)cc4)n3)c2cc1OC [Example 40, (R)-4-(6-(5,6-Dimethoxy-1H-benzo[d]imidazol-1-yl)-3-(1-hydroxyethyl)pyridin-2-yl)benzonitrile] | 5.99 | 6.29 | 5.78 |
| COc1cc2ncn(-c3ccc([C@@H](C)O)c(-c4ccn(C)c(=O)c4)n3)c2cc1OC [Example 42, (R)-6-(5,6-Dimethoxy-1H-benzo[d]imidazol-1-yl)-3-(1-hydroxyethyl)-1′-methyl-[2,4′-bipyridin]-2′(1′H)-one] | 5.89 | 5.98 | 5.69 |
| CC(O)c1ccc(-n2cnc3cc(OCCN4CCOCC4)ccc32)nc1Oc1ccccc1 (stereo not drawn) [Example 53, 1-[6-[5-(2-Morpholinoethoxy)benzimidazol-1-yl]-2-phenoxy-3-pyridyl]ethanol] | 5.67 | 6.49 | 6.39 |
| CC(O)c1ccc(-n2cnc3cc(OCCN4CCOCC4)ccc32)nc1Nc1ccccc1 (stereo not drawn) [Example 55, 1-[2-Anilino-6-[5-(2-morpholinoethoxy)benzimidazol-1-yl]-3-pyridyl]ethanol] | 5.89 | 6.99 | 6.89 |
| CC(O)c1ccc(-n2cnc3cc(OCCN4CCOCC4)ccc32)nc1-n1ccc(C(F)(F)F)n1 (stereo not drawn) [Example 62, 1-[6-[5-(2-Morpholinoethoxy)benzimidazol-1-yl]-2-[3-(trifluoromethyl)pyrazol-1-yl]-3-pyridyl]ethanol] | 5.78 | 6.72 | 6.75 |
| Cc1cc(C#N)nn1-c1nc(-n2cnc3cc(N4CCN(C)CC4)ccc32)ccc1C(C)O (stereo not drawn) [Example 65, 1-[3-(1-Hydroxyethyl)-6-[5-(4-methylpiperazin-1-yl)benzimidazol-1-yl]-2-pyridyl]-5-methyl-pyrazole-3-carbonitrile] | 6.19 | 7.20 | 7.09 |
| Cc1cc(C#N)nn1-c1nc(-n2cnc3cc(N4CCN(C5COC5)CC4)ccc32)ccc1C(C)O (stereo not drawn) [Example 67, 1-[3-(1-Hydroxyethyl)-6-[5-[4-(oxetan-3-yl)piperazin-1-yl]benzimidazol-1-yl]-2-pyridyl]-5-methyl-pyrazole-3-carbonitrile] | 6.12 | 6.88 | 7.01 |

Stronger by pIC50 (SIK1), values ahead:

| pIC50 (SIK1) | pIC50 (SIK2) | pIC50 (SIK3) | Compound |
| --- | --- | --- | --- |
| 6.29 | 6.42 | 5.77 | COc1cc2ncn(-c3ccc(CO)c(NCCCCO)n3)c2cc1OC [Example 34, 4-((6-(5,6-Dimethoxy-1H-benzo[d]imidazol-1-yl)-3-(hydroxymethyl)pyridin-2-yl)amino)butan-1-ol] |
| 6.43 | 6.59 | 5.86 | COc1cc2ncn(-c3ccc(CO)c(NCCCCCO)n3)c2cc1OC [Example 32, 5-((6-(5,6-Dimethoxy-1H-benzo[d]imidazol-1-yl)-3-(hydroxymethyl)pyridin-2-yl)amino)pentan-1-ol] |
| 6.49 | 6.57 | 6.15 | COc1cc2ncn(-c3ccc(CO)c(N4CCCCC4)n3)c2cc1OC [Example 28, (6-(5,6-Dimethoxy-1H-benzo[d]imidazol-1-yl)-2-(piperidin-1-yl)pyridin-3-yl)methanol] |
| 6.49 | 6.40 | 5.71 | COc1cc2ncn(-c3ccc(CO)c(N4CCCC4=O)n3)c2cc1OC [Example 33, 1-(6-(5,6-Dimethoxy-1H-benzo[d]imidazol-1-yl)-3-(hydroxymethyl)pyridin-2-yl)pyrrolidin-2-one] |
| 6.71 | 7.04 | 6.52 | COc1cc2ncn(-c3ccc([C@H](C)O)c(-c4ccn(C)c(=O)c4)n3)c2cc1OC [Example 41, (S)-6-(5,6-Dimethoxy-1H-benzo[d]imidazol-1-yl)-3-(1-hydroxyethyl)-1′-methyl-[2,4′-bipyridin]-2′(1′H)-one] |
| 6.75 | 7.56 | 7.53 | Cc1cc(C#N)nn1-c1nc(-n2cnc3cc(OCCN4CCOCC4)ccc32)ccc1C(C)O (stereo not drawn) [Example 68, 1-[3-(1-Hydroxyethyl)-6-[5-(2-morpholinoethoxy)benzimidazol-1-yl]-2-pyridyl]-5-methyl-pyrazole-3-carbonitrile] |
| 6.80 | 7.23 | 6.59 | COc1cc2ncn(-c3ccc([C@@H](C)O)c(-c4cccc(C#N)c4)n3)c2cc1OC [Example 38, (R)-3-(6-(5,6-Dimethoxy-1H-benzo[d]imidazol-1-yl)-3-(l-hydroxyethyl)pyridin-2-yl)benzonitrile] |
| 6.82 | 7.60 | 6.75 | COc1cc2ncn(-c3ccc([C@H](C)O)c(-c4ccc(C#N)cc4)n3)c2cc1OC [Example 39, (S)-4-(6-(5,6-Dimethoxy-1H-benzo[d]imidazol-1-yl)-3-(l-hydroxyethyl)pyridin-2-yl)benzonitrile] |
| 7.03 | 7.46 | 6.82 | COc1cc2ncn(-c3ccc(C(C)O)c(-n4ccc(C(F)(F)F)n4)n3)c2cc1OC (stereo not drawn) [Example 63, 1-[6-(5,6-Dimethoxybenzimidazol-1-yl)-2-[3-(trifluoromethyl)pyrazol-1-yl]-3-pyridyl]ethanol] |
| 7.35 | 7.44 | 6.72 | Cc1ccc(Oc2ccc3ncn(-c4ccc(C(C)O)c(-n5nc(C#N)cc5C)n4)c3c2)nn1 (stereo not drawn) [Example 74, 1-[3-(1-Hydroxyethyl)-6-[6-(6-methylpyridazin-3-yl)oxybenzimidazol-1-yl]-2-pyridyl]-5-methyl-pyrazole-3-carbonitrile] |
| 7.82 | 8.31 | 7.65 | COc1cc2ncn(-c3ccc([C@H](C)O)c(-c4cccc(C#N)c4)n3)c2cc1OC [Example 37, (S)-3-(6-(5,6-Dimethoxy-1H-benzo[d]imidazol-1-yl)-3-(l-hydroxyethyl)pyridin-2-yl)benzonitrile] |
| 8.30 | 8.85 | 8.66 | Cc1cc(C#N)nn1-c1nc(-n2cnc3cc(Nc4cnn(C5COC5)c4)ccc32)ccc1C(C)O (stereo not drawn) [Example 71, 1-[3-(1-Hydroxyethyl)-6-[5-[[1-(oxetan-3-yl)pyrazol-4-yl]amino]benzimidazol-1-yl]-2-pyridyl]-5-methyl-pyrazole-3-carbonitrile] |
| 8.30 | 9.00 | 8.68 | Cc1cc(C#N)nn1-c1nc(-n2cnc3cc(Nc4cnn(C5CNC5)c4)ccc32)ccc1C(C)O (stereo not drawn) [Example 72, 1-[6-[5-[[1-(Azetidin-3-yl)pyrazol-4-yl]amino]benzimidazol-1-yl]-3-(1-hydroxyethyl)-2-pyridyl]-5-methyl-pyrazole-3-carbonitrile] |
